In one test the target is T1, fMet-Leu-Phe receptor (Homo sapiens, UniProt P21462).
T1 sequence (P21462 whole entry): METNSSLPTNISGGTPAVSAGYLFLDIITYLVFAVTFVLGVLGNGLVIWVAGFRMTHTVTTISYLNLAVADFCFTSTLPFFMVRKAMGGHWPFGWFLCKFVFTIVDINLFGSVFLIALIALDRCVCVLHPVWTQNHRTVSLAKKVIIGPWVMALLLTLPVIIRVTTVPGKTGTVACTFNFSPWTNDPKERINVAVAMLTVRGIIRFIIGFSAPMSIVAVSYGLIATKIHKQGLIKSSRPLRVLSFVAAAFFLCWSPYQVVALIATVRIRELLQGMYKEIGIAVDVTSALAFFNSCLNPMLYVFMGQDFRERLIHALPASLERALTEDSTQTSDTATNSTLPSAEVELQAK
The test can be described thus: cAMP Assay. As to the method: (§1) FPR2 and FPR1 Cyclic Adenosine Monophosphate (cAMP) Assays were used to measure the activity of the compounds in this patent. FPR2 and FPR1 Cyclic Adenosine Monophosphate (cAMP) Assays. A mixture of forskolin (5 μM final for FPR2 or 10 μM final for FPR1) and IBMX (200 μM final) were added to 384-well Proxiplates (Perkin-Elmer) pre-dotted with test compounds in DMSO (1% final) at final concentrations in the range of 0.020 nM to 100 μM. Chinese Hamster Ovary cells (CHO) overexpressing human FPR1 or human FPR2 receptors were cultured in F-12 (Ham's) medium supplemented with 10% qualified FBS, 250 μg/ml zeocin and 300 μg/ml hygromycin (Life Technologies). Reactions were initiated by adding 2,000 human FPR2 cells per well or 4,000 human FPR1 cells per well in Dulbecco's PBS (with calcium and magnesium) (Life Technologies) supplemented with 0.1% BSA (Perkin-Elmer). The reaction mixtures were incubated for 30 min at room temperature. The level of intracellular cAMP was determined using the HTRF HiRange cAMP assay reagent kit (Cisbio) according to manufacturer's instruction. Solutions of cryptate conjugated anti-cAMP and d2 flurorophore-labelled cAMP were made in a supplied lysis buffer separately. Upon completion of the reaction, the cells were lysed with equal volume of the d2-cAMP solution and anti-cAMP solution.

The target of test [1] is T2, N-formyl peptide receptor 2 (Homo sapiens, UniProt P25090).
T2 sequence (P25090 whole entry): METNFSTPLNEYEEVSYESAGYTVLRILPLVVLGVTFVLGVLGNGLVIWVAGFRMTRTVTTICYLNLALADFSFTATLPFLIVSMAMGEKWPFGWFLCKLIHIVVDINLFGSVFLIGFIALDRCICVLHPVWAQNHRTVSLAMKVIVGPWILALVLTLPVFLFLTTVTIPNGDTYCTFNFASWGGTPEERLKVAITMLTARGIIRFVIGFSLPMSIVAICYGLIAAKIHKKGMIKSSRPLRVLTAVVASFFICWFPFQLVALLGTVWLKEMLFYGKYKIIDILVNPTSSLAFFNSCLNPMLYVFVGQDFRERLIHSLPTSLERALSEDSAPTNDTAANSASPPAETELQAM
The experiment in a line: cAMP Assay. As to the method: as §1

Turning to `COCC(CO)n1cccc(N2C(=O)[C@@H](NC(=O)N[C@H]3CC[C@H](C(F)F)CC3)[C@H](c3c(F)cc(OC)cc3F)[C@@H]2C)c1=O` (some centres undefined) [US20230303513, Example 63], the half-maximal effective concentration (EC50) (as a rule, the concentration at which the effect is half-maximal) at fMet-Leu-Phe receptor is 3600 nM; in test [1] it was 41 nM.

Consider `COCCn1cccc(N2C[C@@H](c3ccc(Cl)cc3)[C@H](NC(=O)NC3CCc4cc(OC)ccc4C3)C2=O)c1=O` (some centres undefined) [US20230303513, Example 55], for which the EC50 is greater than 10000 nM at fMet-Leu-Phe receptor and 6.2 nM in test [1].

Values taken from BindingDB's records for patent US20230303513 (Bristol-Myers Squibb, 2023).
